Experimental data as given in US11484533B2, “Methods and compositions for treating obesity” (UNIVERSITY OF SOUTH CAROLINA, priority 2019, dated 2022).

Key:
DIO mice [1] = assay: Fasting metabolic parameters in DIO mice, pre- and post-intervention; assay type: in vivo, C57BL/6J male mice; conditions: HFD+SR vs HFD+Veh and HFD-PFSR; pre- and post- 4-week intervention; 5 h fasted
Protocol: C57BL/6J male mice (Jackson Laboratory, Bar Harbor, Me.) were fed HFD consisting of 60% Kcal from fat (D12492, Research Diets Inc, New Brunswick, N.J.) for 12 weeks before starting the intervention treatment with SR141716A. Additionally, age-matched C57BL/6J male mice were fed a low fat diet (LFD) consisting of 10% Kcal from fat (D12450J, Research Diets Inc, New Brunswick, N.J.) to develop lean controls. SR141716A was obtained from NIDA and administered at a dose of 10 mg/kg daily by oral gavage for 4 weeks, beginning after 12 weeks of diet and ending after 16 weeks. A pair-fed control group was used (HFD-PFSR) in which food intake was restricted to the amount of daily food intake of the HFD+SR group. […]
Measurements of blood glucose, insulin, total cholesterol, and triglycerides were performed in animals fasted for 5 hours. […] The glucose level in whole blood was measured with a glucometer (Bayer, Leverkusen, Germany). Insulin concentration was determined in isolated plasma using an ELISA kit (Abcam, Cambridge, Mass.). Total cholesterol (Genzyme, Kent, United Kingdom) and triglycerides (Pointe Scientific, Canton, Mich.) were determined by colorimetric enzymatic reaction according to the manufacturer's instructions. To quantify insulin resistance, the homeostatic model assessment of insulin resistance index (HOMA-IR) was calculated as previously described.

obese patients = conditions: cited from earlier work
[2] = tested on: thioglycollate-elicited peritoneal macrophages; assay: Migration of peritoneal macrophages towards CCL19; assay type: cell-based, mouse; conditions: SR141716A 10^−6 M vs DMSO; CCL19 500 ng/ml; 3T3-L1 conditioned medium
Protocol: The migration of macrophages to CCL19 (500 ng/ml, R&D Systems) was assessed by FluoroBlock™ permeable inserts (Corning®, Tewksbury, Mass.) and Cytation™5 imaging (BioTek, Winooski, Vt.). Peritoneal macrophages were harvested from mice primed with 1 ml of 3% (wt/vol) thioglycolate (i.p.) to elicit peritoneal exudates with macrophage number peaking on day 4. Macrophages were collected in euthanized mice by intraperitoneal wash. For tracking migration towards chemoattractants, macrophages were labeled with DilC12(3) fluorescent dye (Corning®, Tewksbury, Mass.). Macrophages were treated with conditioned media from 3T3-L1 adipocytes as described and treated either with SR141716A (10^−6 M) or DMSO as the vehicle control.
To test this, thioglycollate-elicited peritoneal macrophages were isolated and cultured them in 3T3-L1 adipocyte conditioned medium and treated them with SR141716A or vehicle. Their migration rate towards CCL19 was measured because CCL19 is the primary chemokine implicated in emigration of tissue macrophages towards draining lymph nodes.

[3] = tested on: epididymal adipose tissue; assay: qRT-PCR of macrophage polarization genes in epididymal fat of DIO mice; assay type: in vivo, C57BL/6J male mice
Protocol: (§1) C57BL/6J male mice (Jackson Laboratory, Bar Harbor, Me.) were fed HFD consisting of 60% Kcal from fat (D12492, Research Diets Inc, New Brunswick, N.J.) for 12 weeks before starting the intervention treatment with SR141716A. Additionally, age-matched C57BL/6J male mice were fed a low fat diet (LFD) consisting of 10% Kcal from fat (D12450J, Research Diets Inc, New Brunswick, N.J.) to develop lean controls. SR141716A was obtained from NIDA and administered at a dose of 10 mg/kg daily by oral gavage for 4 weeks, beginning after 12 weeks of diet and ending after 16 weeks. A pair-fed control group was used (HFD-PFSR) in which food intake was restricted to the amount of daily food intake of the HFD+SR group. All mice were maintained in an AAALAC-accredited animal facility at the University of South Carolina, School of Medicine (Columbia, S.C.). All procedures were performed according to NIH guidelines under protocols approved by the Institutional Animal Care and Use Committee.
After 4 weeks of treatment, mice were euthanized for tissue collection. Tissues were removed, weighed, and immediately processed to single cell suspension, snap-frozen in liquid nitrogen and stored at −80° C., or fixed in 10% formalin.
ATM RNA was isolated by miRNeasy Mini Kit (Qiagen). […] Fold change in mRNA expression was calculated using the comparative cycle method (2^−ΔΔCt).

[4] = tested on: adipose tissue macrophages (ATMs); assay: qRT-PCR and Western blot in adipose tissue macrophages (ATM) of treated DIO mice; assay type: in vivo, C57BL/6J male mice
Protocol: Epididymal fat pads of mice were excised and placed in gentleMACS™ C Tubes (Miltenyi Biotec, San Diego, Calif.) containing digestion medium (HBSS, 2 mg/ml collagenase (Sigma-Aldrich, St. Louis, Mo.) and 2% BSA), followed by homogenization utilizing a gentleMACS™ Dissociator (Miltenyi Biotec). After incubation at 37° C. for 30 minutes with gentle shaking, the cell suspension was filtered through a 100-μm filter and then spun at 300 g for 5 minutes to separate floating adipocytes from the stromal vascular fraction (SVF) pellet. Isolation of F4/80+ ATMs from the SVF was performed using EasySep™ FITC Positive Selection Kit (STEMCELL Technologies, Vancouver, B.C.). FITC-anti-F4/80 antibodies (Clone: BM8, BioLegend®, San Diego, Calif.) were used to label the cells for positive selection. Isolated cells were lysed for RNA analysis in QIAzol (Qiagen, Valencia, Calif.) and stored at −80° C. until RNA purification.
ATM RNA was isolated by miRNeasy Mini Kit (Qiagen). For RNA extraction from whole adipose tissue, 1 mg of adipose tissue was homogenized in RNA-Solv® Reagent with OBI's HiBind® technology reagent (Omega Bio-tek, Norcross, Ga.) and total RNA was isolated as previously described (31). RNA quality was verified by NanoDrop™ 2000C (Thermo Scientific™, Waltham, Mass.). Purified RNA (0.5-1 μg) was reverse-transcribed using miScript cDNA Synthesis Kit (Qiagen), and qRT-PCR analysis was conducted using SsoAdvanced™ Universal SYBR® Green Supermix kit (Bio-Rad, Hercules, Calif.). Fold change in mRNA expression was calculated using the comparative cycle method (2^−ΔΔCt).
Western blot analyses were carried out according to standard protocols with antibodies raised against Netrin-1 (R&D Systems, Minneapolis, Minn.) or γ-tubulin (Sigma-Aldrich, St. Louis, Mo.), which was used as a loading control.

DIO mice [5] = assay: Diet-induced obesity (DIO) mice treated with SR141716A: body weight, caloric intake, DEXA body composition; assay type: in vivo, C57BL/6J male mice
Protocol: as §1
The body composition in mice was analyzed by dual-energy X-ray absorptiometry (DEXA, LUNAR, Madison, Wis.). The mice were anesthetized and placed in the prone position on the specimen tray to allow scanning of the entire body. For food intake measurements, mice were given a defined amount of large intact food pellet weekly, or daily for the HFD-PFSR group. Food weight was measured using a balance with a precision of 0.01 g. Solid food intake was corrected for any visible spillage.
To study the effects of CB1 antagonist on obesity parameters, DIO mice that were fed a 60% HFD for 12 weeks were treated with SR141716A (SR) by daily oral gavage for 4 weeks (FIG. 1A). All other experimental groups were treated with the vehicle (Veh) 0.1% Tween® 80. In addition to the HFD+SR group, other experimental groups included mice fed a 10% low-fat control diet (LFD) (LFD+Veh), ad-libitum HFD-fed mice (HFD+Veh), and HFD-fed mice that were pair-fed to the HFD+SR group (HFD-PFSR) (FIG. 1B). […] At the baseline of the study, the mice were stratified into groups balanced by mean fat mass. […] Fasting parameters including blood glucose, insulin, insulin resistance index (HOMA-IR), total cholesterol and triglycerides were examined pre- and post- the 4-week intervention with SR compound.

macrophage CB1 = assay: BMDM treated in vitro with 3T3-L1 adipocyte conditioned medium and SR141716A; assay type: cell-based, mouse; conditions: adipocyte conditioned medium, vs DMSO
Protocol: TNF, IL-6, and IFNγ ELISA kits were purchased from BioLegend. Netrin-1 ELISA kits were purchased from USCN Life Science (Houston, Tex.). Concentrations were measured in cell supernatants using mouse standards according to the manufacturer's guidelines.
Next, to confirm that the M2 polarization and decreased ATM retention observed in HFD+SR treated mice was a direct effect of CB1 blockade and not a secondary effect due to weight loss or other factors, primary macrophages were treated in vitro with 3T3-L1 adipocyte conditioned media and SR141716A or DMSO vehicle control. […] These findings confirmed that blockade of macrophage CB1 signaling has anti-inflammatory effects.

DIO mice [6] = conditions: cited from earlier work
[7] = DIO mice, 10 mg/kg daily oral gavage, 4 weeks
[8] = after 4 weeks of treatment, HFD+SR vs both HFD+Veh and HFD-PFSR, DEXA
[9] = epididymal adipose tissue of DIO mice, previous report

Cc1c(C(=O)NN2CCCCC2)nn(-c2ccc(Cl)cc2Cl)c1-c1ccc(Cl)cc1 [SR141716A, 5-(4-chlorophenyl)-1-(2,4-dichlorophenyl)-4-methyl-N-piperidin-1-ylpyrazole-3-carboxamide]
metabolic parameters (fasting blood glucose, insulin, HOMA-IR, total cholesterol, triglycerides) (DIO mice [1]): improvement in metabolic parameters
weight loss (obese patients; obese patients, compared with placebo): greater weight loss
adverse effects (obese patients; reason for removal from the market): adverse psychiatric effects
migration towards CCL19 [2]: higher migration towards CCL19
Arg1 (M2) expression [3]: increased expression of Arg1
Nos2 (M1) expression [3]: lowered Nos2 expression
Netrin-1 expression at protein and transcription level ([4]; ATM, HFD+SR vs HFD+Veh, Western blot and qRT-PCR): significantly reduced
miR-466 family expression ([4]; ATMs, microarray validated by qRT-PCR, regardless of calorie intake): down-regulated
Agap2 expression ([4]; ATMs, qRT-PCR): increased
miR-762 expression ([4]; ATMs, qRT-PCR): reduced
Unc5b expression ([4]; HFD+SR vs HFD+Veh): downregulated
body weight (DIO mice [5]; [7]): acute and persistent weight loss
calorie intake (DIO mice [5]; [7]): transient reduction of calorie intake
changes in lean mass (DIO mice [5]; after 4 weeks of treatment, HFD+SR vs HFD+Veh and HFD-PFSR, DEXA): not significant
fat mass (DIO mice [5]; [8]): reduction in the fat mass and fat percentage was significant
fat percentage (DIO mice [5]; [8]): reduction in the fat mass and fat percentage was significant
Klf4 expression (macrophage CB1; BMDM): induction of Klf4 and Stat6
Stat6 expression (macrophage CB1; BMDM): induction of Klf4 and Stat6
Netrin-1 secretion (macrophage CB1; macrophages, ELISA): reduced
number of pro-inflammatory M1 macrophages in adipose tissue (DIO mice [6]; HFD+SR vs HFD+Veh, previously demonstrated): significant decrease
ATM infiltration (DIO mice [6]; [9]): reduces both ATM infiltration and M1 polarization
M1 polarization (DIO mice [6]; [9]): reduces both ATM infiltration and M1 polarization
